Assay [1] has as its system Human immunodeficiency virus 1. Description: Tested for cytoprotection against production of HIV-1 p24. The class given is functional, organism-based.
In assay [2] the test system is Human immunodeficiency virus 1. Description: Effective concentration required for 50% production of p24 production. The class given is functional, organism-based.
Assay [3] deals with T-cell line. Put plainly: Compound was tested for inhibition of HIV-1 replication in human T-cell by using XTT assay; Active. Format: functional, cell-based.
Assay [4] relates to Human immunodeficiency virus 1. Description: Tested against zinc finger of the recombinant HIV-1 p7NC protein by using Trp residue for fluorometric measurements. The class given is functional.
Assay [5] deals with Human immunodeficiency virus 1. Description: Tested against zinc finger of the recombinant HIV-1 p7NC toluenesulfonamide) residue for fluorometric measurements. The class given is functional.
In assay [6] the test system is Human immunodeficiency virus 1. Put plainly: Inhibition of HIV-1 replication in human T-cell by using XTT assay. Format: functional. A general note: Tetrazolium assays rely on reduction of a dye to a coloured formazan, in cell work by metabolically active cells.
Assay [7] relates to Human immunodeficiency virus 1. Description: Compound was tested for inhibition of HIV-1 replication in human T-cell by using XTT assay; Moderately active. Format: functional, organism-based.
Assay [8] deals with Human immunodeficiency virus 1. Put plainly: Compound was tested for effective concentration required for 50% production of p24 production; NA = Not active. Format: functional, organism-based.

Activity calls are given as the source filed them. The calls are words filed in the database; no cut-off is given here.

As usually defined, the IC50 is the point on the concentration scale where inhibition reaches its midpoint. The EC50 is the concentration at which the effect is half-maximal.

In the case of `O=C(N/N=C\c1ccc(Cl)cc1Cl)c1ccccc1SSc1ccccc1C(=O)N/N=C\c1ccc(Cl)cc1Cl`, the IC50 in assay [1] was above 100 µM. A half-maximal response in assay [2] (EC50) required 3.5 µM. Also, in assay [3], the result was Active. In assay [4], the “Decrease in RFU” value is 31.3%. For the same molecule, the “increase in RFU” value in assay [5] is reported as 1.6%. The same molecule displayed a TI50 in assay [6] above 15.9.
In assay [1], `Nc1cc(C(=O)O)ccc1SSc1ccc(C(=O)O)cc1N` had an IC50 above 100 µM. For the same molecule, the EC50 in assay [2] is above 100 µM. The Activity result in assay [7] is “Weak activity”. Also, in assay [4], the “Decrease in RFU” value turned out to be 79.3%. The “increase in RFU” value in assay [5] was 10.9%. The TI50 in assay [6] is recorded as above 6.4.
In assay [1], `Nc1ccc(S(N)(=O)=O)cc1SSc1cc(S(N)(=O)=O)ccc1N` came in with an IC50 of 97 µM. This molecule displayed an EC50 in assay [2] above 100 µM. Also, the Activity result in assay [7] is “Weak activity”. In addition, the “Decrease in RFU” value in assay [4] was 52.1%. The “increase in RFU” value in assay [5] is listed as 26%. For the same molecule, the TI50 in assay [6] is listed as above 14.2.
Molecule `Cc1cc(C(=O)O)c(C)cc1SSc1cc(C)c(C(=O)O)cc1C` displayed an IC50 in assay [1] above 100 µM. The molecule also yielded an EC50 in assay [2] of 32 µM. Moreover, in assay [7], the Activity result is “Weak activity”. In assay [4], the Decrease in RFU is 76.1%. In assay [5], the “increase in RFU” value worked out at 15.7%. In assay [6], the TI50 amounted to 3.6.
Molecule `Cc1cc(S(=O)(=O)C2=NC(Nc3ccccc3)NN2)c(SSc2cc(Cl)c(C)cc2S(=O)(=O)C2=NC(Nc3ccccc3)NN2)cc1Cl` (stereo not given) registered an IC50 in assay [1] above 100 µM. The same molecule registered an EC50 in assay [2] of 80 µM. In addition, the Activity result in assay [7] was “Weak activity”. Moreover, in assay [4], the “Decrease in RFU” value is 92.1%. The “increase in RFU” value in assay [5] turned out to be 1.5%. The TI50 in assay [6] was found to be 15.7.
As to `COC(=S)SSC(=S)N(CC/N=C(/S)SSC(=S)OC)CC/N=C(\S)SSC(=S)OC`, the IC50 in assay [1] was above 100 µM. Besides, in assay [2], the EC50 is above 100 µM. Also, in assay [7], the Activity result was “Weak activity”. In assay [4], the “Decrease in RFU” value is 37.7%. The “increase in RFU” value in assay [5] is recorded as 10.6%. Moreover, the TI50 in assay [6] is reported as 2.6.
For the molecule `O=S(=O)(SC1=NCCN1)c1ccccc1`, the IC50 in assay [1] was above 100 µM. Moreover, in assay [2], the response was half-maximal at 37.2 µM (EC50). Moreover, the Activity entry in assay [7] was “Weak activity”. For the same molecule, the “Decrease in RFU” value in assay [4] was found to be 76.1%. For the same molecule, in assay [5], the “increase in RFU” value was found to be 15.7%. Also, in assay [6], the TI50 came out at 4.3.
With `CC1(C)CC2=NC(SSC3=C(C#N)C(c4ccc(Br)cc4)C4=C(O)CC(C)(C)CC4=N3)=C(C#N)C(c3ccc(Br)cc3)C2=C(O)C1` (stereo not given), in assay [1], the IC50 was above 100 µM. For the same molecule, the EC50 in assay [2] was above 100 µM. The Activity result in assay [7] was “Weak activity”. In addition, the “Decrease in RFU” value in assay [4] is 24.8%. Also, the “increase in RFU” value in assay [5] is given as 0.3%. This molecule gave a TI50 in assay [6] of 3.4.
Consider `O=C(O)c1cccc(SS(=O)(=O)c2cccc(C(=O)O)c2)c1`, for which, in assay [1], the IC50 is above 100 µM. A half-maximal response in assay [2] (EC50) required 71 µM. Further, the Activity entry in assay [7] was “Weak activity”. For the same molecule, the “Decrease in RFU” value in assay [4] stood at 91.2%. Further, in assay [5], the “increase in RFU” value turned out to be 21.1%. For the same molecule, the TI50 in assay [6] is listed as 13.7.
`CC(=O)NC1CN=C(SSC2=NCC(NC(C)=O)S2)S1` (stereo not given) returned an IC50 in assay [1] above 100 µM. In assay [2], the EC50 is above 100 µM. Further, the Activity result in assay [7] was “Weak activity”. Further, the “Decrease in RFU” value in assay [4] was 77.8%. In addition, the “increase in RFU” value in assay [5] is recorded as 8%. This molecule displayed a TI50 in assay [6] above 5.3.
In the case of `COS(=O)CCOC(=O)c1ccccc1SSc1ccccc1C(=O)OCCS(=O)OC` (stereo not given), the EC50 result in assay [8] is on record as “Not Active”. Further, the Activity result in assay [7] is “Weak activity”. In addition, in assay [6], the TI50 is on record as above 2.1.
For the molecule `COc1cc(SSc2cc(OC)cc([N+](=O)[O-])c2N)c(N)c([N+](=O)[O-])c1`, in assay [1], the IC50 was above 100 µM. Further, in assay [2], the response was half-maximal at 7.5 µM (EC50). Further, the Activity result in assay [7] is “Weak activity”. In assay [4], the “Decrease in RFU” value was determined as 80.5%. For the same molecule, in assay [5], the “increase in RFU” value is recorded as 0%. Further, the TI50 in assay [6] amounted to 8.5.
The molecule `N=C(N)Nc1ccccc1SSc1ccccc1N=C(N)N` came in with an IC50 in assay [1] above 100 µM. The same molecule came in with an EC50 in assay [2] of 10 µM. The result in assay [3] was Active. Besides, the “Decrease in RFU” value in assay [4] is recorded as 31.3%. Also, the “increase in RFU” value in assay [5] is on record as 1.6%. In assay [6], the TI50 came out at 32.
Turning to `NS(=O)(=O)c1ccc(SSc2ccc(S(N)(=O)=O)cc2[N+](=O)[O-])c([N+](=O)[O-])c1`, the Activity entry in assay [7] was “Weak activity”. This molecule displayed a TI50 in assay [6] above 5.8.
Regarding `Nc1cc(S(N)(=O)=O)ccc1SSc1ccc(S(N)(=O)=O)cc1N`, in assay [1], the IC50 amounted to 100 µM. Besides, the EC50 in assay [2] was above 100 µM. For the same molecule, the Activity entry in assay [7] was “Weak activity”. Also, in assay [4], the “Decrease in RFU” value came to 81.8%. Moreover, the “increase in RFU” value in assay [5] was 24.4%. The molecule also yielded a TI50 in assay [6] of 14.9.
Molecule `O=C(O)c1ccccc1SSc1ccccc1C(=O)O` returned an IC50 in assay [1] above 100 µM. This molecule also yielded an EC50 in assay [2] of 57.5 µM. The Activity entry in assay [7] was “Weak activity”. In assay [4], the “Decrease in RFU” value is listed as 6%. For the same molecule, in assay [5], the “increase in RFU” value stood at 9.8%. In assay [6], the TI50 is reported as above 1.7.
The molecule `CC(=O)NCCSS(=O)(=O)CCCCS(=O)(=O)SCCNC(C)=O` gave an IC50 in assay [1] above 100 µM. In assay [2], the EC50 is above 100 µM. The Activity entry in assay [7] is “Weak activity”. Also, in assay [4], the “Decrease in RFU” value is given as 82.5%. Moreover, the “increase in RFU” value in assay [5] was 32.8%. In assay [6], this molecule gave a TI50 above 1.6.
The molecule `CC1(C)CC2=NC(SSC3=C(C#N)C(c4ccc(F)cc4)C4=C(O)CC(C)(C)CC4=N3)=C(C#N)C(c3ccc(F)cc3)C2=C(O)C1` (stereo not given) showed an IC50 in assay [1] above 100 µM. This molecule showed an EC50 in assay [2] above 100 µM. In addition, the Activity entry in assay [7] was “Weak activity”. Moreover, the “Decrease in RFU” value in assay [4] is on record as 78.1%. In assay [5], the “increase in RFU” value amounted to 0.3%. Also, the TI50 in assay [6] was determined as 3.2.
`Cc1cc(C)c(C(=O)O)c(SSc2cc(C)cc(C)c2C(=O)O)c1`: in assay [8], the EC50 entry is given as “Not Active”. In assay [7], the Activity entry was “Weak activity”. The same molecule gave a TI50 in assay [6] of 2.7.
`NC(=O)CSSCC(N)=O` gave an IC50 in assay [1] above 100 µM. This molecule also displayed an EC50 in assay [2] above 100 µM. Besides, the Activity result in assay [7] is “Weak activity”. The “Decrease in RFU” value in assay [4] stood at 2.1%. Also, the “increase in RFU” value in assay [5] came to 1.2%. Further, the TI50 in assay [6] worked out at 6.5.
As to `O=C(O)c1ccc(SSc2ccc(C(=O)O)cc2)cc1`, the IC50 in assay [1] was above 100 µM. This molecule had an EC50 in assay [2] above 100 µM. In addition, in assay [7], the Activity result is “Weak activity”. Also, the “Decrease in RFU” value in assay [4] stood at 62.5%. In addition, the “increase in RFU” value in assay [5] is 22.3%. In assay [6], this molecule gave a TI50 above 1.6.
As for `NNC(=O)c1ccccc1SSc1ccccc1C(=O)NN`, the IC50 in assay [1] stood at 96 µM. The same molecule had an EC50 in assay [2] of 21 µM. Also, the Activity entry in assay [7] was “Weak activity”. Besides, in assay [4], the “Decrease in RFU” value is 80.9%. Also, in assay [5], the “increase in RFU” value is recorded as 28.5%. The TI50 in assay [6] amounted to 5.
For `CNCCSS(=O)(=O)CCNC`, in assay [7], the Activity entry was “Weak activity”. Also, in assay [6], the TI50 is on record as above 1.8.
In assay [1], `O=C(O)Cc1ccc(SSc2ccc(CC(=O)O)cc2)cc1` registered an IC50 above 100 µM. Also, in assay [2], the EC50 is above 100 µM. Further, in assay [7], the Activity entry is “Weak activity”. Besides, in assay [4], the “Decrease in RFU” value stood at 51.5%. Further, the “increase in RFU” value in assay [5] stood at 10.6%. The TI50 in assay [6] is above 8.7.

These data come from ChEMBL document CHEMBL1129635, “Evaluation of selected chemotypes in coupled cellular and molecular target-based screens identifies novel HIV-1 zinc finger inhibitors” (J Med Chem, 1996).
